# Literature values in US8394309B2, “Resin film and method for producing it, polarizer and liquid crystal display device” (FUJIFILM Corporation, priority 2010, dated 2013).
# Details: Table 1
row,SMILES,Organic acid: Acid dissociation constant
1,"O=C(O)CC(O)(CC(=O)O)C(=O)O [Citric acid, reference compound]",4.0
2,"CCCCCCCC/C=C/CCCCCCCC(=O)OCC(O)COC(=O)CC(O)(CC(=O)O)C(=O)O (centres unmarked) [Citric and oleic acid esters of glycerol, citric and oleic acid esters of glycerol]",3.2
3,"O=C(O)CN(CC(=O)O)Cc1ccccc1 [N-benzylimino-diacetic acid, N-benzyliminodiacetic acid]",3.2
4,CCCCCCCC/C=C\CCCCCCCC(=O)O [Oleic acid],4.9
5,"CCCCOB(OCCCC)OCCCC [Tributyl borate, reference compound]",6.0
6,CCCCCCCCCCC(=O)O [Undecanoic acid],4.8
7,"CCCCC(=O)O [Valeric acid, reference compound]",4.8
8,"CCCCCCCCCCCCN(CC(=O)O)CC(=O)O [lauramino-diacetic acid, lauraminodiacetic acid]",4.5
